Patent publication US20250134820A1, “PHARMACEUTICAL COMPOSITIONS” (Novartis AG, priority 2021, published 2025)
Counter-ions that a name gives are not always drawn. Each block holds one molecule with its values, some of them ahead of it.

What was measured:
[1] = pHmax of the fumarate salt; type: physicochemical; settings: estimated
Excerpt: The pHmax of the fumarate salt is estimated to be about 4.5. An increase in pH above 4.5 may potentially increase the risk of disproportionation.

[2] = Hygroscopicity, water uptake by DVS; type: physicochemical
Experimental: (§1) Solubility of the fumarate in FaSSIF is 0.09 mg/mL and 0.21 mg/mL in FeSSIF. […] The maximum water uptake by DVS is less than 0.1% up to 95% RH at 25° C.

[3] = Solubility of Compound A fumarate at 25° C.; type: physicochemical; settings: for solubility at 24 h: thermodynamic from solid
Experimental: as §1

[4] = Disproportionation (XRPD) of ASAP batches; type: physicochemical
Experimental: The compatibility of Compound A fumarate was further evaluated in 21 days ASAP study involving three different formulation principles, wet granulation, dry blending and roller compaction. The drug load selected for study was 5% w/w, translating to 6.40% w/w of fumarate salt. The XRPD of the samples were evaluated at certain time intervals according to the Safety Protocol in Table 5.
The analysis was done for the samples stored at 21 days.

[5] = ADME/PK profile across tested species; type: in vivo
Excerpt: (§2) GastroPlus modeling predicted dissolution and/or solubility limitations of the free form of Compound A at high doses.

[6] = Solubility and dissolution rate of the free form in biorelevant media; type: physicochemical
Excerpt: as §2

pHmax [1]: about 4.5
Hygroscopicity [2]: non hygroscopic
Maximum water uptake by DVS ([2]; up to 95% RH at 25° C.): less than 0.1%
solubility at 24 h ([3]; 25 °C, aqueous buffer, pH 1.2 to pH 4.7): ≥ 2000 µg/mL
solubility at 24 h ([3]; acetate buffer pH 4.7, aqueous buffer, 25° C., pH 4.7 buffer (acetate)): > 2000 µg/mL
solubility at 24 h ([3]; hydrochloric acid buffer pH 1.2, simulated gastric fluid, 25° C., pH 1.2 buffer (hydrochloric acid)): > 2000 µg/mL
solubility at 24 h ([3]; hydrochloric acid buffer pH 2, simulated gastric fluid, 25° C., pH 2 buffer (hydrochloric acid)): > 2000 µg/mL
solubility at 24 h ([3]; organic solvent or mixture, 25° C., Acetonitrile): > 100000 µg/mL
solubility at 24 h ([3]; organic solvent or mixture, 25° C., Ethanol): > 100000 µg/mL
Solid residues obtained after 24h equilibration ([3]; pH values of 5.4 and above): correspond to the free form
solubility at 24 h ([3]; phosphate buffer pH 6.8, aqueous buffer, 25° C., pH 6.8 buffer (phosphate)): 30 µg/mL
solubility at 24 h ([3]; 25° C., Water): > 2000 µg/mL
solubility at 24 h ([3]; 25° C., pH 2.0 (SGF), simulated gastric fluid): > 2000 µg/mL
solubility at 24 h ([3]; 25° C., pH 5.8 (FeSSIF), fed state simulating intestinal fluid): 210 µg/mL
solubility at 24 h ([3]; 25° C., pH 6.5 (FaSSIF), fasted state simulating intestinal fluid): 90 µg/mL
Disproportionation result (XRPD) ([4]; 50° C./75% RH - 21 days): No free form peak
Disproportionation result (XRPD) ([4]; 60° C./80% RH - 21 days): No free form peak
Disproportionation result (XRPD) ([4]; 70° C./41% RH - 21 days): No free form peak
Disproportionation result (XRPD) ([4]; 80° C./50% RH - 21 days): No free form peak
Compound: FC(F)OC1=CC(C(F)(F)F)=CN2C[C@@]3(CCC(F)(F)c4c3ccnc4Cl)N=C12 [Compound A fumarate, (S)-1′-chloro-8-(difluoromethoxy)-8′,8′-difluoro-6-(trifluoromethyl)-7′,8′-dihydro-3H,6′H-spiro[imidazo[1,2-a]pyridine-2,5′-isoquinoline]]

Clearance [5]: low to very low
Oral bioavailability [5]: good
Compound: FC(F)OC1=CC(C(F)(F)F)=CN2C[C@@]3(CCC(F)(F)c4c3ccnc4Cl)N=C12 [Compound A, (S)-1′-chloro-8-(difluoromethoxy)-8′,8′-difluoro-6-(trifluoromethyl)-7′,8′-dihydro-3H,6′H-spiro[imidazo[1,2-a]pyridine-2,5′-isoquinoline]]

Solubility [6]: poor
Dissolution rate ([6]; in biorelevant media): slow
Clearance [5]: low
Oral bioavailability [5]: moderate to high
Compound: FC(F)OC1=CC(C(F)(F)F)=CN2C[C@@]3(CCC(F)(F)c4c3ccnc4Cl)N=C12 [free form of Compound A, (S)-1′-chloro-8-(difluoromethoxy)-8′,8′-difluoro-6-(trifluoromethyl)-7′,8′-dihydro-3H,6′H-spiro[imidazo[1,2-a]pyridine-2,5′-isoquinoline]]
